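Grown in 96-well plates, cells were treated for 48 hours with each compound at five concentrations. Insufficient inhibition: endpoint recorded as highest concentration tested. GI50 is the concentration that inhibits growth by half. TGI marks complete inhibition of growth.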
Experiments:
Experiment in all cases: growth of human tumour cells (NCI), 48 h
UACC-62 melanoma = system: UACC-62 melanoma
SNB-75 CNS = system: SNB-75 CNS
SR leukemia = system: SR leukemia
SK-MEL-5 melanoma = system: SK-MEL-5 melanoma
COLO 205 colon = system: COLO 205 colon
LOX IMVI melanoma = system: LOX IMVI melanoma
HCT-116 colon = system: HCT-116 colon
KM12 colon = system: KM12 colon
SK-OV-3 ovarian = system: SK-OV-3 ovarian
786-0 renal = system: 786-0 renal

Row | SMILES | GI50 (UACC-62 melanoma) [µM] | TGI (UACC-62 melanoma) [µM] | GI50 (SNB-75 CNS) [µM] | TGI (SNB-75 CNS) [µM] | GI50 (SR leukemia) [µM] | TGI (SR leukemia) [µM] | GI50 (SK-MEL-5 melanoma) [µM] | TGI (SK-MEL-5 melanoma) [µM] | GI50 (COLO 205 colon) [µM] | TGI (COLO 205 colon) [µM] | GI50 (LOX IMVI melanoma) [µM] | TGI (LOX IMVI melanoma) [µM] | GI50 (HCT-116 colon) [µM] | TGI (HCT-116 colon) [µM] | GI50 (KM12 colon) [µM] | TGI (KM12 colon) [µM] | GI50 (SK-OV-3 ovarian) [µM] | TGI (SK-OV-3 ovarian) [µM] | GI50 (786-0 renal) [µM] | TGI (786-0 renal) [µM]
1 | COC1=CC(=O)c2nc(-c3cccc(C)n3)[nH]c2C1=O | 30.3 | > 100 | 21.2 | 43.6 | 30.6 | > 100 | 15.9 | 36.4 | 26.5 | 67.7 | 49.6 | > 100 | 18 | 35.7 | 35.4 | > 100 | 19.3 | 35.7 | 19.8 | 46.3
2 | CC(=O)CSCc1ccccn1 |  | > 100 |  | 71.9 |  | 56.1 |  | > 100 |  | > 100 |  | > 100 |  | > 100 |  | > 100 |  | > 100 |  | > 100
3 | CN1C(=O)c2cccc3cc([N+](=O)[O-])cc(c23)C1=O |  | > 10 |  | > 10 |  | > 10 |  | > 10 |  | > 10 |  | > 10 |  | > 10 |  | > 10 |  | > 10 |  | > 10
4 | CC(=O)[O-].CCN(CC)c1ccc(C=NCCN=Cc2ccc(N(CC)CC)cc2[O-])c([O-])c1.[Mn+3] | 25.7 | 57.5 | 22.1 | 58.2 | 22.3 | 67.4 | 19 | 33.9 | 18.6 | 32.8 | 20.3 | 37.6 | 18.5 | 33.3 | 17.8 | 33.7 |  |  | 38.7 | > 100
5 | Cc1nc(N)sc1C(=O)/C=C\c1ccc2c(c1)OCO2 |  | > 100 |  | > 100 |  | > 100 |  | > 100 |  | > 100 |  | > 100 |  | > 100 |  | > 100 |  | > 100 |  | > 100
6 | O=C1OC(C(O)CO)C(=O)C1=O (configuration not stated) | 4330 | > 10000 | 6160 | > 10000 | 3860 | > 10000 | > 10000 | > 10000 | 2800 | 6730 | 1950 | 4990 | 2460 | 6520 | 3500 | > 10000 | 2910 | 7200 | 3170 | 8770
7 | Cc1cccc(N2CCN(C(=S)c3ccc4c(c3)OCO4)CC2)c1 | 0.64 | > 100 | 0.8 | 6.85 | 0.557 | > 100 | 0.437 | 35.1 | 0.582 | 4.9 | 1.88 | > 100 | 0.513 | > 100 | 0.514 | > 100 | 2.19 | 83.3 | 7.97 | > 100
8 | Cc1cccc(NC(=O)C(=O)C(C(=O)c2ccc3ccccc3c2)C2OC(=O)c3ccccc32)c1C (configuration not stated) |  | 22.5 |  | 42.9 |  |  |  | 25.9 |  | 24.7 |  | 30.4 |  | 22.2 |  | 51.7 |  | 54.4 |  | 20.3
9 | CCC[CH2][Sn]1([CH2]CCC)[O]CC(CN2CCCC2)[O]1 (configuration not stated) | 13.6 | 30.5 | 14.4 | 40.9 | 10.4 | 39.5 | 17.9 | 33.4 | 18.3 | 34.3 | 12.3 | 26.8 | 16.9 | 30.6 | 16.1 | 36.4 | 37 | > 100 | 14.4 | 28.2
10 | COC1(OC)C2(Cl)C(Cl)=C(Cl)C1(Cl)C1C=CC=CC12 (configuration not stated) |  | > 100 |  | > 100 |  | > 100 |  | > 100 |  | > 100 |  | > 100 |  | > 100 |  | > 100 |  | > 100 |  | > 100
11 | Cc1cccc(NC(=O)/C(=N\NC(C)(C)C)C2NC(=S)NC2=O)c1C (configuration not stated) |  | > 100 |  |  |  |  |  | > 100 |  | > 100 |  |  |  | > 100 |  | > 100 |  | > 100 |  | > 100
12 | COc1ccccc1CNCCCN1C(=O)c2ccc3c4c(ccc(c24)C1=O)C(=O)N(CCCOCCCCOCCCN)C3=O | 0.645 | 1.96 | 1.79 | 3.6 | 0.348 | 3.87 | 0.288 | 1.18 | 0.233 | 0.454 | 1.26 | 3.01 |  |  | 1.26 | 2.79 | 2.35 | 5.76 | 1.53 | 3.84
13 | NS(=O)(=O)c1ccc(NC2(C(=O)O)CCCC2)cc1 |  | > 100 |  | > 100 |  | > 100 |  | > 100 |  | > 100 |  | > 100 |  | > 100 |  | > 100 |  | > 100 |  | > 100
14 | COC(=O)/C(=N\Nc1nnc(C)n1N)C(C#N)c1ccc(Cl)cc1 (configuration not stated) |  | > 100 |  | > 100 |  |  |  |  |  | > 100 |  | > 100 |  | > 100 |  | > 100 |  | > 100 |  | > 100
15 | COc1cc(C(C)O)c[n+](CCc2c[nH]c3ccccc23)c1 (configuration not stated) |  | > 100 |  | > 100 |  | > 100 |  | > 100 |  | > 100 |  | > 100 |  | > 100 |  | > 100 |  |  |  | > 100
16 | Cc1ccn2c(c1)nc1nc3ccccc3nc12 |  | > 100 |  | > 100 |  | > 100 |  | > 100 |  | > 100 |  | > 100 |  |  |  | > 100 |  | > 100 |  | > 100
17 | NCCCCN(CCCN)/[N+]([O-])=N\O |  | > 100 |  | > 100 |  | > 100 |  | > 100 |  | > 100 |  |  |  | > 100 |  | > 100 |  | > 100 |  | > 100

Reference: PubChem BioAssay (NCI)
